≈ marks a conversion by molar mass, not a printed value.
Test system: SA 9218
Assay: MIC by standard agar dilution method
Format: cell-based
Details: Mueller Hinton agar, 10^4 to 10^5 cells per spot, incubated overnight at 35° C., lowest concentration that inhibits visible growth
In short: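 MIC read after overnight 35 °C incubation as lowest drug level preventing visible growth. Inoculum of roughly 10^4–10^5 cells per spot (0.5 McFarland, 1:20 in TSB) applied to Mueller Hinton agar containing serial 2-fold compound dilutions.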

Question: `N#Cc1ccc(NC(=O)c2ccc(S(=O)(=O)N3CCC(O)CC3)cc2)c(C(=O)O)c1` [PHA-571231] was tested. Which MIC did it give?
Answer: > 128 µg/mL

Question: Which MIC does the source give for `Cc1cccc(C(=O)Nc2ccc(C#N)cc2C(=O)O)c1` here?
Answer: 32 µg/mL (≈ 114 µM)

Question: With `N#Cc1ccc(NC(=O)c2cccc(Oc3cccc(F)c3)c2)c(C(=O)O)c1` [PHA-562731] as the compound, how does the MIC read?
Answer: 1 µg/mL (≈ 2.66 µM)

Question: With `O=C(Nc1ccc(Cl)cc1C(=O)O)c1cccc(C(=O)c2ccccc2)c1` [drawing 1011] as the compound, how does the MIC read?
Answer: 4 µg/mL (≈ 10.5 µM)

Question: For `COc1cc(C(=O)Nc2ccc(Br)cc2C(=O)O)c([N+](=O)[O-])cc1OC`, which MIC is on record?
Answer: > 128 µg/mL

Question: How did the MIC turn out when `CN(CCC#N)S(=O)(=O)c1cccc(C(=O)Nc2ccc(C#N)cc2C(=O)O)c1` [PHA-571271] was run?
Answer: 64 µg/mL (≈ 155 µM)

Question: How did the MIC turn out when `CCCCN(CCO)S(=O)(=O)c1ccc(C(=O)Nc2ccc(C#N)cc2C(=O)O)cc1` [PHA-656867] was run?
Answer: 64 µg/mL (≈ 144 µM)

Question: Which MIC does the source give for `N#CC1(c2ccccc2)CCN(S(=O)(=O)c2ccc(C(=O)Nc3ccc(I)cc3C(=O)O)cc2)CC1` here?
Answer: 4 µg/mL (≈ 6.5 µM)

Question: How did the MIC turn out when `CC(=O)c1ccc(NC(=O)c2cccc(S(=O)(=O)N3CCOCC3)c2)c(C(=O)O)c1` [PHA-708923] was run?
Answer: 32 µg/mL (≈ 74 µM)

Question: `N#Cc1ccc(NC(=O)c2cccc(C(=O)N3CCOCC3)c2)c(C(=O)O)c1` [PHA-662412] was tested. Which MIC did it give?
Answer: 64 µg/mL (≈ 169 µM)

Question: With `N#Cc1ccc(NC(=O)c2cccc(S(=O)(=O)N3CCOCC3)c2)c(C(=O)O)c1` [PHA-662951] as the compound, how does the “SA 9218 MIC” value read?
Answer: 32 µg/mL

Question: `CCCN(CCC)S(=O)(=O)c1ccc(C(=O)Nc2ccc(Cl)cc2C(=O)O)cc1Br` [PNU-291410] was tested. Which MIC did it give?
Answer: 4 µg/mL (≈ 7.72 µM)

Question: How did the MIC turn out when `C[C@@H](c1ccccc1)N(C)S(=O)(=O)c1cccc(C(=O)Nc2ccc(C#N)cc2C(=O)O)c1` [PHA-562863] was run?
Answer: 2 µg/mL (≈ 4.31 µM)

Question: For `O=C(Nc1ccc(Br)cc1C(=O)O)c1cc(S(=O)(=O)N2CCc3ccc(Cl)cc32)ccc1Br`, which MIC is on record?
Answer: 2 µg/mL (≈ 3.25 µM)

Question: `CCCCN(CC)S(=O)(=O)c1ccc(C(=O)Nc2ccc(C#N)cc2C(=O)O)cc1` [PHA-571214] was tested. Which MIC did it give?
Answer: 16 µg/mL (≈ 37.3 µM)

Question: `O=C(Nc1ccc(Br)cc1C(=O)O)c1cccc(S(=O)(=O)N2CCOCC2)c1` [PHA-571396] was tested. Which MIC did it give?
Answer: 4 µg/mL (≈ 8.52 µM)

Question: Which MIC does the source give for `CCCCOc1ccc(C(=O)Nc2ccc(Br)cc2C(=O)O)cc1` here?
Answer: 8 µg/mL (≈ 20.4 µM)

Question: `O=C(Nc1ccc(Cl)cc1C(=O)O)c1ccc(I)c(I)c1` was tested. Which MIC did it give?
Answer: 2 µg/mL (≈ 3.79 µM)

Question: For `CN(CCC(O)c1ccccc1)S(=O)(=O)c1ccc(C(=O)Nc2ccc(C#N)cc2C(=O)O)cc1` (centres unmarked) [PHA-656861], which MIC is on record?
Answer: 32 µg/mL (≈ 64.8 µM)

Question: With `CCOC(=O)C1CCC(Oc2ccc(C(=O)Nc3ccc(Br)cc3C(=O)O)cc2)CC1` (centres unmarked) as the compound, how does the MIC read?
Answer: > 128 µg/mL

Question: For `O=C(Nc1ccc(-c2ccccc2)cc1C(=O)O)c1cccc(S(=O)(=O)N2CCc3cc(Cl)ccc32)c1` [PHA-557035], which MIC is on record?
Answer: 4 µg/mL (≈ 7.5 µM)

Question: Which MIC does the source give for `O=C(Nc1ccc(Br)cc1C(=O)O)c1ccc2c(c1)S(=O)(=O)c1ccccc1C2=O` here?
Answer: 16 µg/mL (≈ 32.9 µM)

Question: How did the MIC turn out when `CC(=O)Oc1ccc(N2C(=O)c3ccc(C(=O)Nc4ccc(Br)cc4C(=O)O)cc3C2=O)cc1` was run?
Answer: 64 µg/mL (≈ 122 µM)

Question: Which MIC does the source give for `CC1CCCN(S(=O)(=O)c2cccc(C(=O)Nc3ccc(C#N)cc3C(=O)O)c2)C1` (centres unmarked) [PHA-571270] here?
Answer: 8 µg/mL (≈ 18.7 µM)

Question: `O=C(Nc1ccc(Br)cc1C(=O)O)c1cc(S(=O)(=O)Nc2ccc3c(c2)OCCO3)ccc1Br` was tested. Which MIC did it give?
Answer: 0.5 µg/mL (≈ 0.817 µM)

Question: `N#Cc1ccc(NC(=O)c2cccc(CS(=O)(=O)N3CCCC3)c2)c(C(=O)O)c1` [PHA-630852, 5-cyano-2-({3-[(1-pyrrolidinylsulfonyl)methyl]benzoyl}amino)benzoic acid] was tested. Which MIC did it give?
Answer: 4 µg/mL (≈ 9.67 µM)

Question: `Cc1ccc(C(=O)Nc2ccc(Br)cc2C(=O)O)cc1S(=O)(=O)N1CCN(c2cccc(C(F)(F)F)c2)CC1` was tested. Which MIC did it give?
Answer: 16 µg/mL (≈ 25.5 µM)

Question: How did the MIC turn out when `N#Cc1ccc(NC(=O)c2ccc(-c3ccccc3)cc2)c(C(=O)O)c1` was run?
Answer: 64 µg/mL (≈ 187 µM)

Question: `N#CCCN(Cc1ccccc1)S(=O)(=O)c1ccc(C(=O)Nc2ccc(C#N)cc2C(=O)O)cc1` [PHA-571246] was tested. Which MIC did it give?
Answer: 32 µg/mL (≈ 65.5 µM)

Question: How did the MIC turn out when `O=C(Cc1cccs1)Nc1cccc(C(=O)Nc2ccc(Br)cc2C(=O)O)c1` [PHA-708980] was run?
Answer: 16 µg/mL (≈ 34.8 µM)

Question: With `CN(C)c1ccc(CNS(=O)(=O)c2ccc(C(=O)Nc3ccc(Br)cc3C(=O)O)cc2)cc1` as the compound, how does the MIC read?
Answer: 128 µg/mL (≈ 240 µM)

Question: Which MIC does the source give for `COc1ccccc1C(=O)c1cccc(C(=O)Nc2ccc(Cl)cc2C(=O)O)c1` [PHA-656885] here?
Answer: 16 µg/mL (≈ 39 µM)

Question: Which MIC does the source give for `O=C(Nc1ccc(Cl)cc1C(=O)O)c1cccc(C(=O)c2ccc(F)c(F)c2)c1` [PHA-656892] here?
Answer: 8 µg/mL (≈ 19.2 µM)

Question: With `CN(c1ccc(Cl)cc1)S(=O)(=O)c1cc(C(=O)Nc2ccc(Br)cc2C(=O)O)cc([N+](=O)[O-])c1` [PHA-515583] as the compound, how does the MIC read?
Answer: 8 µg/mL (≈ 14.1 µM)

Question: `CC1(C)CN(S(=O)(=O)c2cccc(C(=O)Nc3ccc(C#N)cc3C(=O)O)c2)c2ccccc21` [PHA-555027] was tested. Which MIC did it give?
Answer: 1 µg/mL (≈ 2.1 µM)

Question: For `CN(c1ccc(Cl)cc1)S(=O)(=O)c1ccc(C(=O)Nc2ccc([N+](=O)[O-])cc2C(=O)O)cc1` [PNU-293032], which MIC is on record?
Answer: 16 µg/mL (≈ 32.7 µM)

Question: For `CN(C)c1ccc(C(=O)c2cccc(C(=O)Nc3ccc(Cl)cc3C(=O)O)c2)cc1`, which MIC is on record?
Answer: 4 µg/mL (≈ 9.46 µM)

Question: With `COc1ccc(C(=O)Nc2ccc(Br)cc2C(=O)O)cc1S(=O)(=O)NCCc1ccc(N)cc1` as the compound, how does the MIC read?
Answer: 128 µg/mL (≈ 233 µM)

Question: How did the MIC turn out when `O=C(Nc1ccc(Br)cc1C(=O)O)c1cccc(OCc2cccnc2)c1` was run?
Answer: 32 µg/mL (≈ 74.9 µM)

Question: How did the MIC turn out when `O=C(Nc1ccc(Br)cc1C(=O)O)c1cccc(OCCN2CCCC2=O)c1` was run?
Answer: 32 µg/mL (≈ 71.5 µM)

Question: How did the MIC turn out when `CC1CN(S(=O)(=O)c2ccc(C(=O)Nc3ccc(C#N)cc3C(=O)O)cc2)CC(C)O1` (centres unmarked) [PHA-571182] was run?
Answer: 64 µg/mL (≈ 144 µM)

Question: For `N#Cc1ccc(NC(=O)c2ccccc2)c(C(=O)O)c1` [PHA-521535], which “SA 9218 MIC” value is on record?
Answer: >128 µg/mL

Question: With `N#Cc1ccc(NC(=O)c2cccc(Oc3cccc([N+](=O)[O-])c3)c2)c(C(=O)O)c1` [PHA-564218] as the compound, how does the MIC read?
Answer: 1 µg/mL (≈ 2.48 µM)

Question: Which MIC does the source give for `Nc1ccc(CCNS(=O)(=O)c2cccc(C(=O)Nc3ccc(Br)cc3C(=O)O)c2)cc1` here?
Answer: 64 µg/mL (≈ 123 µM)

Question: Which MIC does the source give for `O=C(Nc1ccc(Br)cc1C(=O)O)c1ccc(S(=O)(=O)n2ccc3ccc(F)cc32)cc1` [PNU-291011] here?
Answer: 0.25 µg/mL (≈ 0.483 µM)

Question: For `O=Cc1ccc(NC(=O)c2cccc(S(=O)(=O)N3CCOCC3)c2)c(C(=O)O)c1` [PHA-666124], which MIC is on record?
Answer: 32 µg/mL (≈ 76.5 µM)

Question: Which MIC does the source give for `COCCOc1ccc(C(=O)Nc2ccc(Br)cc2C(=O)O)cc1` here?
Answer: 128 µg/mL (≈ 325 µM)

Question: Which MIC does the source give for `N#Cc1ccc(NC(=O)c2ccc(S(=O)(=O)N3CCc4ccccc4C3)cc2)c(C(=O)O)c1` [PHA-571265] here?
Answer: 16 µg/mL (≈ 34.7 µM)

Question: `COCC1CCCN1S(=O)(=O)c1ccc(C(=O)Nc2ccc(C#N)cc2C(=O)O)cc1` (centres unmarked) [PHA-571257] was tested. Which MIC did it give?
Answer: 64 µg/mL (≈ 144 µM)

Question: Which MIC does the source give for `CC(=O)c1ccc(NC(=O)c2cccc(S(=O)(=O)N3CCc4cc(Cl)ccc43)c2)c(C(=O)O)c1` [PHA-719201] here?
Answer: 2 µg/mL (≈ 4.01 µM)

Question: Which MIC does the source give for `CN(C)c1cccc(C(=O)Nc2ccc(Br)cc2C(=O)O)c1` here?
Answer: 32 µg/mL (≈ 88.1 µM)

Question: `N#Cc1ccc(NC(=O)c2cccc3ccccc23)c(C(=O)O)c1` was tested. Which MIC did it give?
Answer: 16 µg/mL (≈ 50.6 µM)

Question: How did the MIC turn out when `Cc1ccc(C(=O)Nc2ccc(Br)cc2C(=O)O)cc1S(=O)(=O)N1CCc2ccccc21` was run?
Answer: 1 µg/mL (≈ 1.94 µM)

Question: `O=C(Nc1ccc(C#CCO)cc1C(=O)O)c1cccc(S(=O)(=O)N2CCc3ccccc32)c1` [PHA-687570] was tested. Which MIC did it give?
Answer: 128 µg/mL (≈ 269 µM)

Question: How did the MIC turn out when `O=C(Nc1ccc(Br)cc1C(=O)O)c1cccc(OCC2CCCC2)c1` was run?
Answer: 128 µg/mL (≈ 306 µM)

Question: How did the MIC turn out when `O=C(Nc1ccc(C(=O)Nc2ccc(Br)cc2C(=O)O)cc1)c1ccccc1` [PHA-708977] was run?
Answer: > 128 µg/mL

Question: How did the MIC turn out when `COC(=O)c1ccc(COc2ccc(C(=O)Nc3ccc(Br)cc3C(=O)O)cc2)cc1` was run?
Answer: > 128 µg/mL

Question: `O=C(Nc1ccc(Cl)cc1C(=O)O)c1ccccc1` was tested. Which MIC did it give?
Answer: 128 µg/mL (≈ 464 µM)

Question: Which MIC does the source give for `CC(=O)c1ccc(CC(=O)c2ccc(S(=O)(=O)N3CCc4cc(Cl)ccc43)cc2)c(C(=O)O)c1` [PHA-708922] here?
Answer: > 128 µg/mL

Question: `CCCOc1ccc(C(=O)Nc2ccc(Br)cc2C(=O)O)cc1` was tested. Which MIC did it give?
Answer: 64 µg/mL (≈ 169 µM)

Question: Which MIC does the source give for `CCCCCC(=O)c1ccc(NC(=O)c2ccc(S(=O)(=O)N3CCc4ccc(Cl)cc43)cc2)c(C(=O)O)c1` here?
Answer: 8 µg/mL (≈ 14.4 µM)

Question: How did the MIC turn out when `CCON=C(c1ccc(NC(=O)c2ccc(S(=O)(=O)N3CCc4ccccc43)cc2)c(C(=O)O)c1)C(C)C` was run?
Answer: 64 µg/mL (≈ 119 µM)
